According to patent US20170014375A1, “PHARMACEUTICAL COMPOSITION COMPRISING EFFECTIVE DOSE OF POMIFERIN FOR TREATING CANCERS” (Macau University of Science and Technology, priority 2015, published 2017):

Test system: H1299 (human lung cancer) cells
Test: MTT cytotoxicity assay, H1299
Type: cell-based
Details: NCI-H1299, 72 h, 3 days, read-out: Means of IC50
Method: Pomiferin is dissolved in DMSO at a final concentration of 100 mmol/L and stored at −20° C. Cytotoxicity is assessed using the 3-(4,5-dimethylthiazol-2-yl)-2,5-diphenyltetrazolium bromide assay. 4000-8000 HeLa (human cervical cancer), MCF-7 (human breast cancer), HepG2 and Hep3B (human liver cancer), H1299 and A549 (human lung cancer), LNCap (human prostate cancer) and LLC-1 (mouse Lewis lung carcinoma) cells are seeded on 96-well plates per well. After overnight pre-incubation, the cells are exposed to different concentrations of pomiferin ([…]) for 3 days. Subsequently, 10 μL of MTT reagents is added to each well and incubated at 37° C. for 4 hours followed by the addition of 100 μL solubilization buffer (10% SDS in 0.01 mol/L HCl) and overnight incubation. Absorbance at 585 nm is determined from each well the next day. The percentage of cell viability is calculated using the following formula: Cell viability (%)=Cells number treated/Cells number DMSO control×100. Data are obtained from three independent experiments.

## CC(C)=CCc1c2c(c3occ(-c4ccc(O)c(O)c4)c(=O)c3c1O)C=CC(C)(C)O2 [pomiferin]
  IC50: 16.3 µM
